EC50 data for one compound are collected here from patent US7960365B2, “Compounds with medicinal effects due to interaction with the glucocorticoid receptor” (N.V. Organon, priority 2006, dated 2011).

The target of this assay is T1, recombinant human-GR (GR) (Homo sapiens, UniProt P04150).
T1 construct: purchased PanVera
T1 sequence (P04150 1-777): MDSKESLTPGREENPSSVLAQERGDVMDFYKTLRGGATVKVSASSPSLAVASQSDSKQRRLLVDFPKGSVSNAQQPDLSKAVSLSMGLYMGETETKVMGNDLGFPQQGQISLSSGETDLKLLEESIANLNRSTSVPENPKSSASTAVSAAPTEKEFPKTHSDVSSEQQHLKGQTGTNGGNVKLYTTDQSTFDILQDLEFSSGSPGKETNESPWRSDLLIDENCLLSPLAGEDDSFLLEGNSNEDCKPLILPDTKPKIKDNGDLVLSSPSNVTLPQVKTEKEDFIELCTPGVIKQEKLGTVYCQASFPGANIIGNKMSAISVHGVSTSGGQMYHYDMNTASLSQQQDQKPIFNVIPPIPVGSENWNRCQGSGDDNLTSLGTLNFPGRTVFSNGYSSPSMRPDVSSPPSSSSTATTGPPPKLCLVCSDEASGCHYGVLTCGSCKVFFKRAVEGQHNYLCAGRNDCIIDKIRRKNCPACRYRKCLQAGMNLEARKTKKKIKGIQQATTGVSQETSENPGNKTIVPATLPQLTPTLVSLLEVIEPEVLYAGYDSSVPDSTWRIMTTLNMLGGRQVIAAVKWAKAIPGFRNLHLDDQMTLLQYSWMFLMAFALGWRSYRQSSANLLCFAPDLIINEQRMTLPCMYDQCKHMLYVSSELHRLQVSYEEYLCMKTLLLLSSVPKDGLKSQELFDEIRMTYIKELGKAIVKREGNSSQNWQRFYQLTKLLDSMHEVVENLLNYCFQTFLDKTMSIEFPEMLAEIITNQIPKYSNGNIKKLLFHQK
As to the kind of experiment: Glucocorticoid Receptor Competitor Assay kit (PanVera), fluorescence polarisation competition binding. The settings on record: fluormone GS1 1 nM, GR 4 nM, 90 minutes at room temperature. As to the method:
The affinity of compounds was tested using a Glucocorticoid Receptor Competitor Assay kit (PanVera®). Components of the kit were thawed from −80° C. on ice (Fluormone GS1, recombinant human-GR (GR)) or at room temperature (GR screening buffer, stabilising peptide and DTT). 10 mM test compounds were manually diluted to 20 μM then serially diluted to a final concentration range of 10 μM to 0.1 nM using the BioMek 2000 (Beckman-Coulter) into a black walled 384 welled plate (Matrix technologies). In the following order: fluormone GS1 (1 nM final concentration) is added to all wells excluding the buffer control wells, GR (4 nM final concentration) is added to all wells except minimum and buffer control wells, cortisol (10 μM final concentration) is added to fluormone GS1 control wells only, buffer is added to all wells to a final volume of 40 μl. The plate is covered and incubated at room temperature with agitation for 90 minutes. Readings were taken using the Analyst (LJL) in fluorescence polarisation reading mode. The MilliP ratio is calculated from cps readings obtained in parallel and perpendicular mode. The percent effect of the bound ligand is calculated at each concentration and the dose response curves plotted allowing the EC50 to be calculated. […]
(In general: Polarisation of emitted light reports the rotation of a fluorescent probe.)

SMILES strings stand for the structures. pEC50: −log10 of the molar value.

As a reminder, the pEC50 is the negative decadic logarithm of the EC50, by convention in mol/L. On to `CC#C[C@]1(O)CC[C@H]2[C@@H]3CCC4=CC(=O)CCC4=C3[C@@H](c3ccc4c(c3)OCO4)C[C@@]21C` [(11beta, 17beta)-11-(1,3-benzodioxol-5-yl)-17-hydroxy-17-(1-propynyl)estra-4,9-dien-3-one], for which the pEC50 is 8.00.
